Reference: ChEMBL document CHEMBL1201862, “PubChem BioAssay data set” (2004)
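All cell lines were grown in 96-well plates and treated with compound for 48 hours. GI50 marks 50% less growth.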 Activity calls are given as the source filed them. No stated cut-off is given here; in the data, active = GI50 up to about 1.1 µM and inactive = higher.

Tests used:
Test in all cases: NCI-60 cell line screen, 48 h
[1] = test system: NCI-H226
[2] = test system: RPMI-8226
[3] = test system: HOP-62
[4] = test system: SNB-78
[5] = test system: SW-620
[6] = test system: UACC-62
[7] = test system: COLO 205
[8] = test system: DMS-273
[9] = test system: M19-MEL
[10] = test system: HCT-116
[11] = test system: HT-29
[12] = test system: SK-MEL-2
[13] = test system: K562
[14] = test system: NCI-H522
[15] = test system: SK-MEL-5
[16] = test system: NCI-H23
[17] = test system: SF-539
[18] = test system: LXFL 529
[19] = test system: KM-20L2
[20] = test system: A549
[21] = test system: MOLT-4
[22] = test system: LOX IMVI
[23] = test system: DMS-114
[24] = test system: 786-0
[25] = test system: HCT-15
[26] = test system: OVCAR-8
[27] = test system: SF-268
[28] = test system: UO-31
[29] = test system: ACHN
[30] = test system: RXF 393
[31] = test system: U-251
[32] = test system: SK-MEL-28
[33] = test system: SR
[34] = test system: TK-10
[35] = test system: SN12C
[36] = test system: HCC 2998
[37] = test system: CCRF-CEM
[38] = test system: KM12
[39] = test system: IGROV-1
[40] = test system: M14
[41] = test system: Malme-3M
[42] = test system: SF-295
[43] = test system: EKVX
[44] = test system: OVCAR-3
[45] = test system: NCI-H460
[46] = test system: SNB-75
[47] = test system: XF498
[48] = test system: OVCAR-5
[49] = test system: SNB-19
[50] = test system: OVCAR-4
[51] = test system: SK-OV-3
[52] = test system: HL-60
[53] = test system: DLD-1
[54] = test system: UACC-257
[55] = test system: A498
[56] = test system: MDA-N
[57] = test system: Hs-578T
[58] = test system: CAKI-1
[59] = test system: MDA-MB-231
[60] = test system: HOP-18
[61] = test system: MCF7
[62] = test system: DU-145
[63] = test system: T47D
[64] = test system: PC-3
[65] = test system: HOP-92

Measured: GI50

Cc1ccc(S(=O)(=O)c2ccc(C)cc2[N+](=O)[O-])c([N+](=O)[O-])c1
inactive: [1] > 100 µM | [2] > 100 µM | [3] > 100 µM | [4] > 100 µM | [5] > 100 µM | [6] > 100 µM | [7] > 100 µM | [8] > 100 µM | [9] > 100 µM | [10] > 100 µM | [11] > 100 µM | [12] > 100 µM | [13] > 100 µM | [14] > 100 µM | [15] > 100 µM | [16] > 100 µM | [17] > 100 µM | [18] > 100 µM | [19] > 100 µM | [20] > 100 µM | [21] > 10 µM | [22] > 100 µM | [23] > 100 µM | [24] > 100 µM | [26] > 100 µM | [27] > 100 µM | [28] > 100 µM | [29] 44.9 µM | [30] > 100 µM | [31] > 100 µM | [32] > 100 µM | [33] > 100 µM | [34] > 100 µM | [35] > 100 µM | [36] > 100 µM | [37] > 100 µM | [38] > 100 µM | [39] > 100 µM | [40] > 100 µM | [41] > 100 µM | [42] > 100 µM | [43] > 100 µM | [44] > 100 µM | [45] > 100 µM | [46] 18.5 µM | [47] > 100 µM | [48] > 100 µM | [49] > 100 µM | [50] 89.9 µM
> 100 µM: [25]

Nc1ccc2c(c1)C(=O)N(O)C2=O
inactive: [1] > 100 µM | [3] > 100 µM | [4] > 100 µM | [5] > 100 µM | [6] > 100 µM | [9] > 100 µM | [10] > 100 µM | [11] > 100 µM | [13] > 100 µM | [16] > 100 µM | [17] > 100 µM | [18] > 100 µM | [19] > 100 µM | [20] > 100 µM | [21] > 100 µM | [22] > 100 µM | [51] > 100 µM | [23] > 100 µM | [27] > 100 µM | [52] > 100 µM | [28] > 100 µM | [29] > 100 µM | [30] > 100 µM | [31] > 100 µM | [53] > 100 µM | [32] > 100 µM | [33] > 100 µM | [34] > 100 µM | [35] > 100 µM | [36] 92 µM | [37] > 100 µM | [54] > 100 µM | [38] > 100 µM | [39] > 100 µM | [40] > 100 µM | [55] > 100 µM | [41] > 100 µM | [42] > 100 µM | [43] > 100 µM | [44] > 100 µM | [45] > 100 µM | [46] > 100 µM | [47] > 100 µM | [48] > 100 µM | [49] > 100 µM | [50] > 100 µM
> 100 µM: [25]

COc1cc([C@@H]2c3cc4c(c(O)c3C[C@H]3COC(=O)[C@@H]32)OCO4)cc(OC)c1OC [BETA-PELTATIN A]
active: [1] 0.302 µM | [2] 0.015 µM | [56] 0.000284 µM | [57] 0.0241 µM | [3] 0.323 µM | [4] 0.015 µM | [5] 0.015 µM | [7] 0.0238 µM | [58] 0.015 µM | [59] 0.00596 µM | [8] 0.015 µM | [9] 0.0548 µM | [10] 0.015 µM | [12] 0.015 µM | [14] 0.0676 µM | [61] 0.015 µM | [20] 0.015 µM | [21] 0.015 µM | [22] 0.0267 µM | [23] 0.015 µM | [24] 0.0241 µM | [26] 0.015 µM | [27] 0.015 µM | [28] 0.0693 µM | [29] 0.0241 µM | [53] 0.015 µM | [62] < 0.0241 µM | [35] 0.015 µM | [36] 0.015 µM | [64] 0.0241 µM | [38] 0.015 µM | [39] 0.015 µM | [40] 0.0241 µM | [41] 0.0156 µM | [42] 0.0238 µM | [43] 0.282 µM | [44] 0.015 µM | [45] 0.0254 µM | [65] 0.015 µM | [47] 0.015 µM | [49] 0.015 µM | [50] 0.0627 µM
inactive: [60] 1.26 µM | [13] 19.5 µM | [32] 4.18 µM | [33] 109 µM | [34] 31.6 µM | [63] 51.9 µM | [37] 1.8 µM | [46] 1.61 µM | [48] 21.4 µM
0.015 µM: [25]
